Assay results from patent US10703757B2, “Compounds and methods for CDK8 modulation and indications therefor” (Plexxikon Inc., priority 2016, dated 2020).

Experiments:
[1] = system: CDK8 (TCF/LEF luciferase reporter in HCT116 cells); assay: Cell based TCF/LEF reporter assay (HCT116+TCF/LEF luciferase); conditions: Homo sapiens
In short: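 HCT116 cells stably carrying a TCF/LEF-luciferase reporter (endogenous mutant β-catenin), seeded overnight, then exposed to serial compound dilutions for 24 h at 37 °C. Luminescence normalized to CellTiter-Fluor viability signal. % inhibition relative to DMSO and 10 uM CCT251545 controls, with IC50 from nonlinear regression.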

[2] = system: CDK8 (phosphorylation of STAT1 at serine 727 in A549 cells); assay: Cell based Phospho-STAT1 assay (IFNγ-stimulated A549 cells, AlphaLISA); conditions: Homo sapiens, phospho-STAT1 after IFNγ stimulation
In short: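 A549 cells given serial compound dilutions for 1 h at 37 °C, then stimulated with IFNγ at 10 ng/mL final for 30 min. Lysate STAT1 Ser727 phosphorylation measured by AlphaLISA; % inhibition vs stimulated/unstimulated DMSO controls, IC50 by nonlinear regression.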

Compound: Cn1cc(C#Cc2cnc3cccc(N4CCC5(CCNC5=O)CC4)n23)cn1 [Compound P-0278, 8-(3-((1-methyl-1H-pyrazol-4-yl)ethynyl)imidazo[1,2-a]pyridin-5-yl)-2,8-diazaspiro[4.5]decan-1-one]
- IC50 ([1]; HCT-116, 24 h): 100 to 1000 nM
- IC50 ([2]; A549, A549 cells): 100 to 1000 nM

Compound: COc1ccc2cc(-c3cnn4ccnc(C5=CCC(C#N)CC5)c34)ccc2n1 (stereo not drawn) [Compound P-0147, 4-(3-(2-methoxyquinolin-6-yl)pyrazolo[1,5-a]pyrazin-4-yl)cyclohex-3-ene-1-carbonitrile]
- IC50 ([1]; HCT-116, 24 h): 0.1 to 100 nM
- IC50 ([2]; A549, A549 cells): 0.1 to 100 nM

Compound: N#CC1CC=C(c2c(-c3ccc(-c4cnn(C(F)F)c4)cc3)cnc3[nH]ccc23)CC1 (stereo not drawn) [Compound P-0270, 4-(5-(4-(1-(difluoromethyl)-1H-pyrazol-4-yl)phenyl)-1H-pyrrolo[2,3-b]pyridin-4-yl)cyclohex-3-ene-1-carbonitrile]
- IC50 ([1]; HCT-116, 24 h): 0.1 to 100 nM
- IC50 ([2]; A549, A549 cells): 0.1 to 100 nM

Compound: Cc1ccc2cc(-c3cnc4[nH]ccc4c3N3CCC(C#N)CC3)ccc2n1 [Compound P-0209, 1-(5-(2-methylquinolin-6-yl)-1H-pyrrolo[2,3-b]pyridin-4-yl)piperidine-4-carbonitrile]
- IC50 ([1]; HCT-116, 24 h): 0.1 to 100 nM
- IC50 ([2]; A549, A549 cells): 0.1 to 100 nM

Compound: O=C(O)C1CC=C(c2cccn3ncc(-c4ccc(-n5cccn5)cc4)c23)CC1 (stereo not drawn) [Compound P-0213, 4-(3-(4-(1H-pyrazol-1-yl)phenyl)pyrazolo[1,5-a]pyridin-4-yl)cyclohex-3-ene-1-carboxylic acid]
- IC50 ([1]; HCT-116, 24 h): 1000 to 10000 nM
- IC50 ([2]; A549, A549 cells): 1000 to 10000 nM

Compound: N#CC1CC=C(c2nccn3ncc(-c4ccc(-c5cnn(CC6(C#N)CC6)c5)cc4)c23)CC1 (stereo not drawn) [Compound P-0096, 4-(3-(4-(1-((1-cyanocyclopropyl)methyl)-1H-pyrazol-4-yl)phenyl)pyrazolo[1,5-a]pyrazin-4-yl)cyclohex-3-ene-1-carbonitrile]
- IC50 ([1]; HCT-116, 24 h): 0.1 to 100 nM
- IC50 ([2]; A549, A549 cells): 0.1 to 100 nM

Compound: N#CC1CCC(c2nccn3ncc(-c4ccc(-c5cnn(CC6CC6)c5)cc4)c23)CC1 (stereo not drawn) [Compound P-0020, (1s,4s)-4-(3-(4-(1-(cyclopropylmethyl)-1H-pyrazol-4-yl)phenyl)pyrazolo[1,5-a]pyrazin-4-yl)cyclohexane-1-carbonitrile]
- IC50 ([1]; HCT-116, 24 h): 0.1 to 100 nM
- IC50 ([2]; A549, A549 cells): 0.1 to 100 nM

Compound: N#CC1CCC(c2nccn3ncc(-c4ccc(N5CCOCC5)c(F)c4)c23)CC1 (stereo not drawn) [Compound P-0101, 4-(3-(3-fluoro-4-morpholinophenyl)pyrazolo[1,5-a]pyrazin-4-yl)cyclohexane-1-carbonitrile]
- IC50 ([1]; HCT-116, 24 hours): 100 to 1000 nM
- IC50 ([2]; A549 cells): 0.1 to 100 nM

Compound: N#CC1CC=C(c2nccn3ncc(-c4ccc(OCCOC5CCOCC5)cc4)c23)CC1 (stereo not drawn) [Compound P-0146, 4-(3-(4-(2-((tetrahydro-2H-pyran-4-yl)oxy)ethoxy)phenyl)pyrazolo[1,5-a]pyrazin-4-yl) cyclohex-3-ene-1-carbonitrile]
- IC50 ([1]; HCT-116, 24 h): 0.1 to 100 nM
- IC50 ([2]; A549, A549 cells): 0.1 to 100 nM

Compound: N#CC1C2CCC1CN(c1cccn3ncc(-c4ccc(Cl)cc4)c13)C2 (stereo not drawn) [Compound P-0161, 3-(3-(4-chlorophenyl)pyrazolo[1,5-a]pyridin-4-yl)-3-azabicyclo[3.2.1]octane-8-carbonitrile]
- IC50 ([1]; HCT-116, 24 h): 1000 to 10000 nM
- IC50 ([2]; A549, A549 cells): 1000 to 10000 nM

Compound: N#CC1CC=C(c2nccn3ncc(-c4ccc(OCC5CCCCO5)cc4)c23)CC1 (stereo not drawn) [Compound P-0079, 4-(3-(4-((tetrahydro-2H-pyran-2-yl)methoxy)phenyl)pyrazolo[1,5-a]pyrazin-4-yl)cyclohex-3-ene-1-carbonitrile]
- IC50 ([1]; HCT-116, 24 h): 0.1 to 100 nM
- IC50 ([2]; A549, A549 cells): 0.1 to 100 nM

Compound: Cn1ncc2cc(-c3cnn4cccc(C#CC5(O)COC5)c34)ccc21 [Compound P-0362, 3-((3-(1-methyl-1H-indazol-5-yl)pyrazolo[1,5-a]pyridin-4-yl)ethynyl)oxetan-3-ol]
- IC50 ([1]; HCT-116, 24 h): 100 to 1000 nM
- IC50 ([2]; A549, A549 cells): 0.1 to 100 nM

Compound: COc1ccc(-c2cnn3ccnc(C4CCC(C#N)CC4)c23)cc1C (stereo not drawn) [Compound P-0457, (1s,4s)-4-(3-(4-methoxy-3-methylphenyl)pyrazolo[1,5-a]pyrazin-4-yl)cyclohexane-1-carbonitrile]
- IC50 ([1]; HCT-116, 24 h): 0.1 to 100 nM
- IC50 ([2]; A549, A549 cells): 0.1 to 100 nM

Compound: COc1ccc(-c2cnn3ccnc(C4=CCC(C#N)CC4)c23)cc1Cl (stereo not drawn) [Compound P-0041, 4-(3-(3-chloro-4-methoxyphenyl)pyrazolo[1,5-a]pyrazin-4-yl)cyclohex-3-ene-1-carbonitrile]
- IC50 ([1]; HCT-116, 24 h): 0.1 to 100 nM
- IC50 ([2]; A549, A549 cells): 0.1 to 100 nM

Compound: N#CC1CCC(c2nccn3ncc(-c4ccc(-c5cnn(CC(N)=O)c5)cc4)c23)CC1 (stereo not drawn) [Compound P-0013, 2-(4-(4-(4-((1s,4s)-4-cyanoclohexyl)pyrazolo[1,5-a]pyrazin-3-yl)phenyl)-1H-pyrazol-1-yl)acetamide]
- IC50 ([1]; HCT-116, 24 h): 0.1 to 100 nM
- IC50 ([2]; A549, A549 cells): 0.1 to 100 nM

Compound: N#CC1CC=C(c2nccn3ncc(-c4ccc(-c5cnn(CC6CC6)c5)cc4)c23)CC1 (stereo not drawn) [Compound P-0034, 4-(3-(4-(1-(cyclopropylmethyl)-1H-pyrazol-4-yl)phenyl)pyrazolo[1,5-a]pyrazin-4-yl)cyclohex-3-ene-1-carbonitrile]
- IC50 ([1]; HCT-116, 24 h): 0.1 to 100 nM
- IC50 ([2]; A549, A549 cells): 0.1 to 100 nM

Compound: N#CC1CCC(c2nccn3ncc(-c4ccc5c(cnn5C5CCCCO5)c4)c23)CC1 (stereo not drawn) [Compound P-0109, 4-(3-(1-(tetrahydro-2H-pyran-2-yl)-1H-indazol-5-yl)pyrazolo[1,5-a]pyrazin-4-yl)cyclohexane-1-carbonitrile]
- IC50 ([1]; HCT-116, 24 h): 100 to 1000 nM
- IC50 ([2]; A549, A549 cells): 0.1 to 100 nM

Compound: CC(C)(O)Cn1cc(-c2ccc(-c3cnn4ccnc(C5CCC(C#N)CC5)c34)nc2)cn1 (stereo not drawn) [Compound P-0458, (1s,4s)-4-(3-(5-(1-(2-hydroxy-2-methylpropyl)-1H-pyrazol-4-yl)pyridin-2-yl)pyrazolo[1,5-a]pyrazin-4-yl)cyclohexane-1-carbonitrile]
- IC50 ([1]; HCT-116, 24 h): 0.1 to 100 nM
- IC50 ([2]; A549, A549 cells): 0.1 to 100 nM

Compound: CCCS(=O)(=O)Nc1ccc2cc(-c3cnn4ccnc(C5=CCC(C#N)CC5)c34)ccc2n1 (stereo not drawn) [Compound P-0094, N-(6-(4-(4-cyanocyclohex-1-en-1-yl)pyrazolo[1,5-a]pyrazin-3-yl)quinolin-2-yl)propane-1-sulfonamide]
- IC50 ([1]; HCT-116, 24 h): 0.1 to 100 nM
- IC50 ([2]; A549, A549 cells): 0.1 to 100 nM

Compound: N#CC1CC=C(c2nccn3ncc(-c4ccc(-c5cnn(C(F)F)c5)cc4)c23)CC1 (stereo not drawn) [Compound P-0012, 4-(3-(4-(1-(difluoromethyl)-1H-pyrazol-4-yl)phenyl)pyrazolo[1,5-a]pyrazin-4-yl)cyclohex-3-ene-1-carbonitrile]
- IC50 ([1]; HCT-116, 24 h): 0.1 to 100 nM
- IC50 ([2]; A549, A549 cells): 0.1 to 100 nM

Compound: CC(C)(O)Cn1cc(-c2ccc(-c3cnn4ccnc(C5CCC(C#N)CC5)c34)cc2)cn1 (stereo not drawn) [Compound P-0064, (1r,4r)-4-(3-(4-(1-(2-hydroxy-2-methylpropyl)-1H-pyrazol-4-yl)phenyl)pyrazolo[1,5-a]pyrazin-4-yl)cyclohexane-1-carbonitrile]
- IC50 ([1]; HCT-116, 24 h): 0.1 to 100 nM
- IC50 ([2]; A549, A549 cells): 0.1 to 100 nM

Compound: CC(C)(O)Cn1cc(-c2ccc(-c3cnn4ccnc(C5CCC(C#N)CC5)c34)cn2)cn1 (stereo not drawn) [Compound P-0459, (1s,4s)-4-(3-(6-(1-(2-hydroxy-2-methylpropyl)-1H-pyrazol-4-yl)pyridin-3-yl)pyrazolo[1,5-a]pyrazin-4-yl)cyclohexane-1-carbonitrile]
- IC50 ([1]; HCT-116, 24 h): 0.1 to 100 nM
- IC50 ([2]; A549, A549 cells): 0.1 to 100 nM

Compound: Cn1cc(-c2ccc(-c3cnn4cccc(C#CC(C)(C)N)c34)cc2)cn1 [Compound P-0309, 2-methyl-4-(3-(4-(1-methyl-1H-pyrazol-4-yl)phenyl)pyrazolo[1,5-a]pyridin-4-yl)but-3-yn-2-amine]
- IC50 ([1]; HCT-116, 24 h): 100 to 1000 nM
- IC50 ([2]; A549, A549 cells): 0.1 to 100 nM

Compound: N#CC1CC=C(c2cccn3ncc(-c4ccc5cccnc5c4)c23)CC1 (stereo not drawn) [Compound P-0124, 4-(3-(quinolin-7-yl)pyrazolo[1,5-a]pyridin-4-yl)cyclohex-3-ene-1-carbonitrile]
- IC50 ([1]; HCT-116, 24 h): 100 to 1000 nM
- IC50 ([2]; A549, A549 cells): 0.1 to 100 nM
